Source: patent US8410302B2, “Methoxyimino compounds and fungicide composition comprising same” (Kyung Nong Corporation, priority 2007, dated 2013)
Like-named read-outs stand apart in the source and are kept apart here.

Legend:
[1] = system: Botrytis cinerae; experiment: Fungicidal activity against cucumber gray mold rot (CGM) disease, control value; type: in vivo
[2] = system: Rhizoctonia solani AG-1; experiment: Fungicidal activity against rice sheath blight (RSB) disease, control value; conditions: for pest or weed control at 2 ppm / pest or weed control at 10 ppm / pest or weed control at 50 ppm / pest or weed control at 100 ppm: Rhizoctonia solani, AG1, in Oryza sativa, read-out: RSB control value (C.V.); for RSB control value (C.V.): rice sheath blight
[3] = system: Phytophthora infestans; experiment: whole plant or invertebrate; type: in vivo; conditions: for pest or weed control at 2 ppm / pest or weed control at 10 ppm / pest or weed control at 50 ppm / pest or weed control at 100 ppm: Phytophthora infestans, in Solanum lycopersicum, read-out: TLB control value (C.V.); for TLB control value (C.V.): tomato late blight
[4] = system: Puccinia recondita; experiment: Fungicidal activity against wheat leaf rust (WLR) disease, control value; type: in vivo; conditions: for pest or weed control at 2 ppm / pest or weed control at 10 ppm / pest or weed control at 50 ppm / pest or weed control at 100 ppm: read-out: WLR control value (C.V.)
[5] = system: Pyricularia oryzae Carvara KA301; experiment: whole plant or invertebrate; type: in vivo; conditions: for pest or weed control at 2 ppm / pest or weed control at 10 ppm / pest or weed control at 50 ppm / pest or weed control at 100 ppm: Pyricularia oryzae, read-out: RCB control value (C.V.); for RCB control value (C.V.): rice blast
[6] = system: Erysiphae graminis; experiment: Fungicidal activity against barley powdery mildew (BPM) disease, control value; type: in vivo; conditions: for pest or weed control at 2 ppm / pest or weed control at 10 ppm / pest or weed control at 50 ppm / pest or weed control at 100 ppm: 168 h, read-out: BPM control value (C.V.)
[7] = Botrytis, 100 ppm, cucumber gray mold rot, read-out: CGM control value (C.V.)
[8] = Hordeum vulgare, 2 ppm, barley powdery mildew
[9] = Hordeum vulgare, 10 ppm, barley powdery mildew
[10] = Hordeum vulgare, 50 ppm, barley powdery mildew
[11] = Hordeum vulgare, 100 ppm, barley powdery mildew
[12] = Botrytis, 100 ppm, read-out: CGM control value (C.V.)

## CO/N=C(/C(=O)OC)c1ccccc1COc1c(C)cccc1C=C(Cl)Cl [Example 49, methyl-(E)-2-(2-((2-(2,2-dichlorovinyl)-6-methylphenoxy)methyl)phenyl)-2-methoxyiminoacetate]
[1]; [7]
  pest or weed control at 100 ppm: 30%
[2]
  pest or weed control at 2 ppm: 95%
  pest or weed control at 10 ppm: 98%
  pest or weed control at 50 ppm: 100%
  pest or weed control at 100 ppm: 100%
[3]
  pest or weed control at 2 ppm: 97%
  pest or weed control at 10 ppm: 99%
  pest or weed control at 50 ppm: 100%
  pest or weed control at 100 ppm: 100%
[4]; 2 ppm, wheat leaf rust
  pest or weed control at 2 ppm: 100%
[4]; 10 ppm, wheat leaf rust
  pest or weed control at 10 ppm: 100%
[4]; 50 ppm, wheat leaf rust
  pest or weed control at 50 ppm: 100%
[4]; 100 ppm, wheat leaf rust
  pest or weed control at 100 ppm: 100%
[5]
  pest or weed control at 2 ppm: 93%
  pest or weed control at 10 ppm: 100%
  pest or weed control at 50 ppm: 100%
  pest or weed control at 100 ppm: 100%
[6]; [8]
  pest or weed control at 2 ppm: 100%
[6]; [9]
  pest or weed control at 10 ppm: 100%
[6]; [10]
  pest or weed control at 50 ppm: 100%
[6]; [11]
  pest or weed control at 100 ppm: 100%

## CNC(=O)/C(=N/OC)c1ccccc1COc1c(C)cccc1C=C(Cl)Cl [Example 50, (E)-2-(2-((2-(2,2-dichlorovinyl)-6-methylphenoxy)methyl)phenyl)-2-methoxyimino-N-methylacetamide]
[1]; [7]
  pest or weed control at 100 ppm: 20%
[2]
  pest or weed control at 2 ppm: 95%
  pest or weed control at 10 ppm: 98%
  pest or weed control at 50 ppm: 100%
  pest or weed control at 100 ppm: 100%
[3]
  pest or weed control at 2 ppm: 90%
  pest or weed control at 10 ppm: 99%
  pest or weed control at 50 ppm: 100%
  pest or weed control at 100 ppm: 100%
[4]; 2 ppm, wheat leaf rust
  pest or weed control at 2 ppm: 100%
[4]; 10 ppm, wheat leaf rust
  pest or weed control at 10 ppm: 100%
[4]; 50 ppm, wheat leaf rust
  pest or weed control at 50 ppm: 100%
[4]; 100 ppm, wheat leaf rust
  pest or weed control at 100 ppm: 100%
[5]
  pest or weed control at 2 ppm: 85%
  pest or weed control at 10 ppm: 98%
  pest or weed control at 50 ppm: 100%
  pest or weed control at 100 ppm: 100%
[6]; [8]
  pest or weed control at 2 ppm: 100%
[6]; [9]
  pest or weed control at 10 ppm: 100%
[6]; [10]
  pest or weed control at 50 ppm: 100%
[6]; [11]
  pest or weed control at 100 ppm: 100%

## CO/N=C(/C(=O)OC)c1ccccc1COc1c(OC)ccc(C=C(Cl)Cl)c1Br [Example 51, methyl-(E)-2-(2-((2-bromo-3-(2,2-dichlorovinyl)-6-methoxyphenoxy)methyl)phenyl)-2-methoxyiminoacetate]
[1]; [7]
  pest or weed control at 100 ppm: 75%
[2]
  pest or weed control at 2 ppm: 90%
  pest or weed control at 10 ppm: 98%
  pest or weed control at 50 ppm: 100%
  pest or weed control at 100 ppm: 100%
[3]
  pest or weed control at 2 ppm: 90%
  pest or weed control at 10 ppm: 97%
  pest or weed control at 50 ppm: 100%
  pest or weed control at 100 ppm: 100%
[4]; 2 ppm, wheat leaf rust
  pest or weed control at 2 ppm: 100%
[4]; 10 ppm, wheat leaf rust
  pest or weed control at 10 ppm: 100%
[4]; 50 ppm, wheat leaf rust
  pest or weed control at 50 ppm: 100%
[4]; 100 ppm, wheat leaf rust
  pest or weed control at 100 ppm: 100%
[5]
  pest or weed control at 2 ppm: 90%
  pest or weed control at 10 ppm: 100%
  pest or weed control at 50 ppm: 100%
  pest or weed control at 100 ppm: 100%
[6]; [8]
  pest or weed control at 2 ppm: 100%
[6]; [9]
  pest or weed control at 10 ppm: 100%
[6]; [10]
  pest or weed control at 50 ppm: 100%
[6]; [11]
  pest or weed control at 100 ppm: 100%

## CNC(=O)/C(=N/OC)c1ccccc1COc1c(OC)ccc(C=C(Cl)Cl)c1Br [Example 52]
[1]; 100 ppm, cucumber gray mold rot
  CGM control value (C.V.): 45%
[2]; 2 ppm
  RSB control value (C.V.): 95%
[2]; 10 ppm
  RSB control value (C.V.): 100%
[2]; 50 ppm
  RSB control value (C.V.): 100%
[2]; 100 ppm
  RSB control value (C.V.): 100%
[3]; 2 ppm
  TLB control value (C.V.): 95%
[3]; 10 ppm
  TLB control value (C.V.): 100%
[3]; 50 ppm
  TLB control value (C.V.): 100%
[3]; 100 ppm
  TLB control value (C.V.): 100%
[4]; 2 ppm, wheat leaf rust
  WLR control value (C.V.): 100%
[4]; 10 ppm, wheat leaf rust
  WLR control value (C.V.): 100%
[4]; 50 ppm, wheat leaf rust
  WLR control value (C.V.): 100%
[4]; 100 ppm, wheat leaf rust
  WLR control value (C.V.): 100%
[5]; 2 ppm
  RCB control value (C.V.): 70%
[5]; 10 ppm
  RCB control value (C.V.): 100%
[5]; 50 ppm
  RCB control value (C.V.): 100%
[5]; 100 ppm
  RCB control value (C.V.): 100%
[6]; 2 ppm, barley powdery mildew
  BPM control value (C.V.): 99%
[6]; 10 ppm, barley powdery mildew
  BPM control value (C.V.): 100%
[6]; 50 ppm, barley powdery mildew
  BPM control value (C.V.): 100%
[6]; 100 ppm, barley powdery mildew
  BPM control value (C.V.): 100%

## CO/N=C(/C(=O)OC)c1ccccc1COc1ccc(C=C(Cl)Cl)cc1Br [Example 53, methyl-(E)-2-(2-((2-bromo-4-(2,2-dichlorovinyl)phenoxy)methyl)phenyl)-2-methoxyiminoacetate]
[1]; [7]
  pest or weed control at 100 ppm: 50%
[2]
  pest or weed control at 2 ppm: 85%
  pest or weed control at 10 ppm: 98%
  pest or weed control at 50 ppm: 100%
  pest or weed control at 100 ppm: 100%
[3]
  pest or weed control at 2 ppm: 90%
  pest or weed control at 10 ppm: 99%
  pest or weed control at 50 ppm: 100%
  pest or weed control at 100 ppm: 100%
[4]; 10 ppm, wheat leaf rust
  pest or weed control at 10 ppm: 100%
[4]; 50 ppm, wheat leaf rust
  pest or weed control at 50 ppm: 100%
[4]; 100 ppm, wheat leaf rust
  pest or weed control at 100 ppm: 100%
[4]; Puccinia recondita, 2 ppm
  pest or weed control at 2 ppm: 100%
[5]
  pest or weed control at 2 ppm: 70%
  pest or weed control at 10 ppm: 97%
  pest or weed control at 50 ppm: 100%
  pest or weed control at 100 ppm: 100%
[6]; 2 ppm
  pest or weed control at 2 ppm: 100%
[6]; [9]
  pest or weed control at 10 ppm: 100%
[6]; [10]
  pest or weed control at 50 ppm: 100%
[6]; [11]
  pest or weed control at 100 ppm: 100%

## CNC(=O)/C(=N/OC)c1ccccc1COc1ccc(C=C(Cl)Cl)cc1Br [Example 54, (E)-2-(2-((2-bromo-4-(2,2-dichlorovinyl)phenoxy)methyl)phenyl)-2-methoxyimino-N-methylacetamide]
[1]; [12]
  pest or weed control at 100 ppm: 65%
[2]
  pest or weed control at 2 ppm: 90%
  pest or weed control at 10 ppm: 98%
  pest or weed control at 50 ppm: 100%
  pest or weed control at 100 ppm: 100%
[3]
  pest or weed control at 2 ppm: 93%
  pest or weed control at 10 ppm: 95%
  pest or weed control at 50 ppm: 100%
  pest or weed control at 100 ppm: 100%
[4]; Puccinia recondita, 2 ppm
  pest or weed control at 2 ppm: 100%
[4]; Puccinia recondita, 10 ppm
  pest or weed control at 10 ppm: 100%
[4]; Puccinia recondita, 50 ppm
  pest or weed control at 50 ppm: 100%
[4]; Puccinia recondita, 100 ppm
  pest or weed control at 100 ppm: 100%
[5]
  pest or weed control at 2 ppm: 30%
  pest or weed control at 10 ppm: 90%
  pest or weed control at 50 ppm: 100%
  pest or weed control at 100 ppm: 100%
[6]; 2 ppm
  pest or weed control at 2 ppm: 100%
[6]; 10 ppm
  pest or weed control at 10 ppm: 100%
[6]; 50 ppm
  pest or weed control at 50 ppm: 100%
[6]; 100 ppm
  pest or weed control at 100 ppm: 100%

## CO/N=C(/C(=O)OC)c1ccccc1COc1ccc(F)cc1C=C(Cl)Cl [Example 55, methyl-(E)-2-(2-((2-(2,2-dichlorovinyl)-4-fluorophenoxy)methyl)phenyl)-2-methoxyiminoacetate]
[1]; Botrytis, 50 ppm, read-out: CGM control value (C.V.)
  pest or weed control at 50 ppm: 25%
[1]; [12]
  pest or weed control at 100 ppm: 75%
[2]
  pest or weed control at 2 ppm: 90%
  pest or weed control at 10 ppm: 100%
  pest or weed control at 50 ppm: 100%
  pest or weed control at 100 ppm: 100%
[3]
  pest or weed control at 2 ppm: 99%
  pest or weed control at 10 ppm: 100%
  pest or weed control at 50 ppm: 100%
  pest or weed control at 100 ppm: 100%
[4]; Puccinia recondita, 2 ppm
  pest or weed control at 2 ppm: 100%
[4]; Puccinia recondita, 10 ppm
  pest or weed control at 10 ppm: 100%
[4]; Puccinia recondita, 50 ppm
  pest or weed control at 50 ppm: 100%
[4]; Puccinia recondita, 100 ppm
  pest or weed control at 100 ppm: 100%
[5]
  pest or weed control at 2 ppm: 100%
  pest or weed control at 10 ppm: 100%
  pest or weed control at 50 ppm: 100%
  pest or weed control at 100 ppm: 100%
[6]; 2 ppm
  pest or weed control at 2 ppm: 100%
[6]; 10 ppm
  pest or weed control at 10 ppm: 100%
[6]; 50 ppm
  pest or weed control at 50 ppm: 100%
[6]; 100 ppm
  pest or weed control at 100 ppm: 100%
